# Results taken from patent US8399462B2, “JNK modulators” (Roche Palo Alto LLC, priority 2006, dated 2013).
# “And” between values parts separate entries of the source, which are not always exact repeats. Equal entries are not always repeated.
row,Structure (SMILES),melting point
1,"CC(C)(O)c1cccc2c1cnn2-c1ccnc(N[C@H]2CC[C@H](NS(C)(=O)=O)CC2)n1 [Compound 212, N-(4-{4-[4-(2-hydroxy-prop-2-yl)-indazol-1-yl]-pyrimidin-2-ylamino}-cyclohexyl)-methanesulfonamide]",250 to 251 °C
2,"CC1(C)OC[C@@H](COc2cccc3c2cnn3-c2ccnc(N[C@H]3CC[C@H](C(C)(C)O)CC3)n2)O1 (stereo in doubt) [Compound 132, 2-(4-{4-[4-(2,2-di-methyl[1,3]dioxolan-4-ylmethoxy)-indazol-1-yl]-pyrimidin-2-yl-amino}-cyclohexyl)-propan-2-ol]",178.5 to 180 °C
3,"CN(c1cccc2c1ccn2-c1ccnc(N[C@H]2CC[C@H](O)CC2)n1)S(C)(=O)=O [Compound 92, N-{1-[2-(4-hydroxy-cyclohexylamino)-pyrimidin-4-yl]-1H-indol-4-yl}-N-methyl-methanesulfonamide]",235.8 to 236.2 °C
4,"Cn1cc(-c2ccnc(N[C@H]3CC[C@H](O)CC3)n2)c2ccccc21 [Example 17, trans-4-[4-(1-Methyl-1H-indol-3-yl)-pyrimidin-2-ylamino]-cyclohexanol]",194.5 to 195.3 °C
5,"CS(=O)(=O)N[C@H]1CC[C@H](Nc2nccc(-n3ccc4c(F)cccc43)n2)CC1 [Compound 134, N-{4-[4-(4-fluoro-indol-1-yl)-pyrimidin-2-ylamino]-cyclohexyl}-methane sulfonamide]",248.7 to 249.4 °C
6,"CC(=O)N1CCN(c2cccc3c2ccn3-c2ccnc(N[C@H]3CC[C@H](N(CCO)S(C)(=O)=O)CC3)n2)CC1 [Compound 320, N-(4-{4-[4-(4-acetyl-piperazin-1-yl)-indol-1-yl]-pyrimidin-2-ylamino}-cyclohexyl)-N-(2-hydroxy-ethyl)-methanesulfonamide]",244.5 to 248.8 °C
7,"NS(=O)(=O)CCCOc1cccc2c1ccn2-c1ccnc(N[C@H]2CC[C@H](C(=O)N3CCC3)CC2)n1 [Compound 299, 3-(1-{2-[4-(azetidin-1-carbonyl)-cyclohexyl-amino]-pyrimidin-4-yl}-1H-indol-4-yloxy)-propane-1-sulfonic acid amide]",218.4 to 220.9 °C
8,"CNC(=O)COc1cccc2c1cnn2-c1ccnc(N[C@H]2CC[C@H](O)CC2)n1 [Compound 112, 2-{1-[2-(4-hydroxy-cyclohexylamino)-pyrimidin-4-yl]-1H-indazol-4-yloxy}-N-methyl-acetamide]",226 to 227 °C
9,"CSC[C@H]1CC[C@H](Nc2nccc(-n3ccc4c(OCCCS(C)(=O)=O)cccc43)n2)CC1 [Compound 298, {4-[4-(3-methane-sulfonyl-propoxy)-indol-1-yl]-pyrimidin-2-yl}-(4-methylsulfanylmethyl-cyclohexyl)-amine]",158.7 to 159.6 °C
10,"CS(=O)(=O)CCCOc1cccc2c1ccn2-c1ccnc(N[C@H]2CC[C@H](C(=O)N3CCC(CN)CC3)CC2)n1 [Compound 304, (4-aminomethyl-piperidin-1-yl)-(4-{4-[4-(3-methanesulfonyl-propoxy)-indol-1-yl]-pyrimidin-2-ylamino}-cyclohexyl)-methanone]",124.1 to 126.1 °C and 124 to 126 °C
11,"OCC(O)COc1ccc2cnn(-c3ccnc(N[C@H]4CC[C@H](O)CC4)n3)c2c1 (some centres unmarked) [Compound 93, 3-{1-[2-(4-hydroxy-cyclohexylamino)-pyrimidin-4-yl]-1H-indazol-6-yloxy}-propane-1,2-diol]",223.8 to 224.7 °C
12,"CN([C@H]1CC[C@H](Nc2nccc(-n3cc(C#N)c4ccccc43)n2)CC1)S(C)(=O)=O [Compound 248, N-{4-[4-(3-cyano-indol-1-yl)-pyrimidin-2-ylamino]-cyclohexyl}-N-methyl-methane-sulfonamide]",289 to 290 °C
13,"COCCCOc1cccc2c1ccn2-c1ccnc(N[C@H]2CC[C@H](NS(C)(=O)=O)CC2)n1 [Compound 236, N-(4-{4-[4-(3-methoxy-propoxy)-indol-1-yl]-pyrimidin-2-ylamino}-cyclohexyl)-methanesulfonamide]",207 to 208 °C
14,"O=C([C@H]1CC[C@H](Nc2nccc(-n3ncc4c(OCCCO)cccc43)n2)CC1)N1CCCC1 [Compound 144, (4-{4-[4-(3-hydroxy-propoxy)-indazol-1-yl]-pyrimidin-2-ylamino}-cyclohexyl)-pyrrolidin-1-ylmethanone]",187.5 to 188.5 °C
15,"CS(=O)(=O)CCCOc1cccc2c1cnn2-c1ccnc(N[C@H]2CC[C@H](C(=O)c3ccccn3)CC2)n1 [Compound 256, (4-{4-[4-(3-methane-sulfonyl-propoxy)-indazol-1-yl]-pyrimidin-2-ylamino}-cyclohexyl)-pyrid-2-yl-methanone]",200 to 201 °C
16,"CN([C@H]1CC[C@H](Nc2nccc(-n3ncc4c(OCCCS(C)(=O)=O)cccc43)n2)CC1)S(C)(=O)=O [Compound 158, N-(4-{4-[4-(3-methane-sulfonyl-propoxy)-indazol-1-yl]-pyrimidin-2-ylamino}-cyclohexyl)-N-methyl-methane-sulfonamide]",208.8 to 209.6 °C

row,Structure (SMILES),melting point
1,"CS(=O)(=O)CCCOc1cccc2c1ccn2-c1ccnc(N[C@H]2CC[C@H](C(=O)N3CC(O)C3)CC2)n1 [Compound 223, (3-hydroxy-azetidin-1-yl)-(4-{4-[4-(3-methane-sulfonyl-propoxy)-indol-1-yl]-pyrimidin-2-ylamino}-cyclohexyl)-methanone]",152 to 153 °C
2,"CN(C)S(=O)(=O)N[C@H]1CC[C@H](Nc2nccc(-n3ncc4ccccc43)n2)CC1 [Compound 136, Dimethyl sulfonamide [4-(4-indazol-1-yl)-pyrimidin-2-ylamino]-cyclohexyl amine]",238.5 to 239.7 °C
3,"CC1(O)CCN(C(=O)[C@H]2CC[C@H](Nc3nccc(-n4ccc5c(OCCCS(C)(=O)=O)cccc54)n3)CC2)CC1 [Compound 292, (4-hydroxy-4-methyl-piperidin-1-yl)-(4-{4-[4-(3-methanesulfonyl-propoxy)-indol-1-yl]-pyrimidin-2-ylamino}-cyclohexyl)-methanone]",132.6 to 137.7 °C
4,"COC1CN(C(=O)[C@H]2CC[C@H](Nc3nccc(-n4ccc5c(OCCCS(C)(=O)=O)cccc54)n3)CC2)C1 [Compound 274, (4-{4-[4-(3-methane-sulfonyl-propoxy)-indol-1-yl]-pyrimidin-2-ylamino}-cyclohexyl)-(3-methoxy-azetidin-1-yl)-methanone]",162 to 163 °C
5,"CCCOc1cccc2c1cnn2-c1ccnc(N[C@H]2CC[C@H](NS(C)(=O)=O)CC2)n1 [Compound 142, N-{4-[4-(4-propoxy-indazol-1-yl)-pyrimidin-2-ylamino]-cyclohexyl}-methanesulfonamide]",253 to 254 °C
6,"CS(=O)(=O)C[C@H](O)COc1cccc2c1cnn2-c1ccnc(N[C@H]2CC[C@H](C(=O)N3CCC(O)CC3)CC2)n1 (stereo in doubt) [Compound 234, (4-{4-[4-(2-hydroxy-3-methanesulfonyl-propoxy)-indazol-1-yl]-pyrimidin-2-ylamino}-cyclohexyl)-(4-hydroxy-piperidin-1-yl)-methanone]",232 to 233 °C
7,"N#Cc1cn(-c2ccnc(N[C@H]3CC[C@H](C(=O)N4CCC(O)CC4)CC3)n2)c2ccccc12 [Compound 249, 1-{2-[4-(4-hydroxy-piperidine-1-carbonyl)-cyclohexylamino]-pyrimidin-4-yl}-1H-indol-3-carbonitrile]",259 to 260 °C
8,"C[C@@H](CO)COc1cccc2c1cnn2-c1ccnc(N[C@H]2CC[C@H](C(C)(C)O)CC2)n1 (stereo in doubt) [Compound 185, 3-(1-{2-[4-(2-hydroxy-prop-2-yl)-cyclohexyl-amino]-pyrimidin-4-yl}-1H-indazol-4-yloxy)-2-methylpropan-1-ol]",211 to 212.5 °C
9,"CS(=O)(=O)CCCOc1cccc2c1ccn2-c1ccnc(NC2CCC(F)(F)CC2)n1 [Compound 278, (4,4-difluorocyclo-hexyl)-{4-[4-(3-methane-sulfonyl-propoxy)-indol-1-yl]-pyrimidin-2-yl}-amine]",200 to 201 °C
10,"CC1(C)OC[C@@H](COc2cccc3c2cnn3-c2ccnc(N[C@H]3CC[C@H](O)CC3)n2)O1 (stereo in doubt) [Compound 98, 4-{4-[4-(2,2-dimethyl-[1,3]dioxolan-4-ylmeth-oxy)-indazol-1-yl]-pyrimidin-2-ylamino}-cyclohexanol]",189.2 to 190 °C
11,"CCCCOc1cccc2c1cnn2-c1ccnc(N[C@H]2CC[C@H](N(C)S(C)(=O)=O)CC2)n1 [Compound 190, N-{4-[4-(4-butoxy-indazol-1-yl)-pyrimidin-2-ylamino]-cyclohexyl}-N-methyl-methanesulfonamide]",191 to 192 °C
12,"CS(=O)(=O)N[C@H]1CC[C@H](Nc2nccc(-n3ccc4c(OCCCC#N)cccc43)n2)CC1 [Compound 202, N-(4-{4-[4-(3-cyano-propoxy)-indol-1-yl]-pyrimidin-2-ylamino}-cyclohexyl)-methane-sulfonamide]",247 to 248 °C
13,"CC(=O)Nc1ccc2cnn(-c3ccnc(N[C@H]4CC[C@H](O)CC4)n3)c2c1 [Example 19, trans-N-{1-[2-(4-Hydroxycyclohexylamino)-pyrimidin-4-yl]-1H-indazol-6-yl}-acetamide]",288 to 289.5 °C
14,"CC(C)(CO)COc1cccc2c1cnn2-c1ccnc(N[C@H]2CC[C@H](C(=O)N3CC[C@@H](O)C3)CC2)n1 (stereo in doubt) [Compound 261, (4-{4-[4-(3-hydroxy-2,2-dimethyl-propoxy)-indazol-1-yl]-pyrimidin-2-ylamino}-cyclohexyl)-(3-hydroxy-pyrrolidin-1-yl)-methanone]",214 to 215 °C
15,"COCc1cccc2c1ccn2-c1ccnc(N[C@H]2CC[C@H](O)CC2)n1 [Compound 102, 4-[4-(4-methoxymethyl-indol-1-yl)-pyrimidin-2-ylamino]-cyclohexanol]",134.8 to 137.3 °C
16,"O[C@H]1CC[C@H](Nc2nccc(-c3n[nH]c4c(C(F)(F)F)cccc34)n2)CC1 [Example 3, trans-4-[4-(7-Trifluoromethyl-1H-indazol-3-yl)-pyrimidin-2-yl-amino]-cyclohexanol]",265.5 to 270 °C
